Legend:
[1] = molecular target: T1, recombinant N-terminal GST-tagged human Rho kinase 1 (ROCK1, amino acids 1-535) (Homo sapiens, UniProt Q13464); experiment: In vitro Rho kinase assay (luciferase-based ATP consumption), ROCK1; type: biochemical
T1 construct: ROCK1, amino acids 1-535, Invitrogen Inc., cat. #PV-3691; GST (N); purchased Invitrogen Inc. PV-3691
Method: (§1) Rho kinase biochemical assays described below depend on firefly luciferase-based, indirect measurement of total ATP consumption by the kinase following incubation with substrate and ATP. 25 μl of Rho kinase assay buffer (20 mM Tris-HCL [pH 7.5], 1 mM MgCl2, 0.4 mM CaCl2, 0.15 mM EGTA, 0.1 mg/ml bovine serum albumin) containing 0.82 μg/ml of recombinant N-terminal GST-tagged human Rho kinase 1 (ROCK1, amino acids 1-535, Invitrogen Inc., cat. #PV-3691) or recombinant N-terminal GST-tagged human Rho kinase 2 (ROCK2, amino acids 1-552, Invitrogen Inc., cat #PV3759), 100 μg/ml S6 peptide substrate (related to amino acids 218-249 of the human 40S ribosomal protein S6, and suitable for ROCK1 or ROCK2, e.g. Upstate/Millipore Inc., cat #12-420), and 3 µM ATP are dispensed to wells of a 384 multi-well opaque plate. The plate is centrifuged for 30 seconds at approximately 200×g. 240 nl of test compound in DMSO is dispensed to each well by passive pin transfer. The lag phase of this in vitro kinase reaction permits addition of compounds soon after the reaction initiates. The reaction is allowed to incubate at 30° C. for 2 hours. The assay plates are sealed and maintained in a humidified environment. After 2 hours, 25 μl of easyLite protein kinase assay reagent (Perkin-Elmer, Inc.) is dispensed. After an additional 10 minute incubation at room temperature (about 22° C.), luminescence activity is measured on a Molecular Devices Analyst multi-mode plate reader or other suitable plate reader. Kinase inhibition results in less ATP consumption, and therefore increased luminescence signal. Negative control activity is measured with DMSO lacking any test compound. The positive control is 2-methyl-1-(4-methylisoquinolin-5-ylsulfonyl)perhydro-1,4-diazepine hydrochloride (aka H-1152P, HCl salt). Efficacy is measured as a percentage of positive control activity. […] In some cases, kinase reactions and compound testing are performed in 1536 multi-well plates under similar conditions, with assay volumes appropriately scaled. The designated NT means the cited example was not tested.

[2] = molecular target: T2, recombinant N-terminal GST-tagged human Rho kinase 2 (ROCK2, amino acids 1-552) (Homo sapiens, UniProt O75116); experiment: In vitro Rho kinase assay (luciferase-based ATP consumption), ROCK2; type: biochemical
T2 construct: ROCK2, amino acids 1-552, Invitrogen Inc., cat #PV3759; GST (N); purchased Invitrogen Inc. PV3759
Method: as §1

T2 sequence (O75116 1-552): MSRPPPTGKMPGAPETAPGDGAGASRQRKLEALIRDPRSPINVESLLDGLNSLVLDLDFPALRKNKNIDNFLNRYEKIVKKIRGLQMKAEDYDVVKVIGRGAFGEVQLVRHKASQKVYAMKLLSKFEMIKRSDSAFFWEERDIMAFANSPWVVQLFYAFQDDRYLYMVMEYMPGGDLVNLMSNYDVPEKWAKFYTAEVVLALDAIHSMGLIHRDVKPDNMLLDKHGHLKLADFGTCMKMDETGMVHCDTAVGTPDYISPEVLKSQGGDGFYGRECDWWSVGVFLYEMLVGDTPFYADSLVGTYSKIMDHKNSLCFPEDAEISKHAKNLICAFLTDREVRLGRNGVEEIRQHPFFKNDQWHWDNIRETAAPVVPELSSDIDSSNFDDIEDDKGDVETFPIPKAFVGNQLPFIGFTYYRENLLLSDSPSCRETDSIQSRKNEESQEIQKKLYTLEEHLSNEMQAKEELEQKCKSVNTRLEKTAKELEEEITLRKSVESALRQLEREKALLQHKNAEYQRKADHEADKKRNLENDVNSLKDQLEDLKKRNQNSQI
T1 sequence (Q13464 1-535): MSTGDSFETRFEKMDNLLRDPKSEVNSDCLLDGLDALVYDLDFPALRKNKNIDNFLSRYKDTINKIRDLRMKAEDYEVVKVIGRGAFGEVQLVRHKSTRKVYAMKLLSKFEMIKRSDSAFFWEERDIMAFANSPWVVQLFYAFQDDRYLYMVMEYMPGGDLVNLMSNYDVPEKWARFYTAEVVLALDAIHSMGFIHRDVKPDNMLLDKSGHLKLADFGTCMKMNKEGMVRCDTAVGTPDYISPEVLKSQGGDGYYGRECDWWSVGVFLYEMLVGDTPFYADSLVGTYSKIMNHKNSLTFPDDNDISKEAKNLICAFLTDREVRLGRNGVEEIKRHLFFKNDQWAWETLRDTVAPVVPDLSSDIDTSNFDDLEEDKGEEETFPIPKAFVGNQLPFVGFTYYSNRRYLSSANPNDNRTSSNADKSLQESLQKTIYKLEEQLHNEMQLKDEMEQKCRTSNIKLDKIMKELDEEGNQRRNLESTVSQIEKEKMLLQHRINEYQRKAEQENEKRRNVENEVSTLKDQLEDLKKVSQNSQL

SMILES	IC50 [1]	IC50 [2]
O=C(NCc1nc(-c2c[nH]c3ncccc23)n[nH]1)c1cccs1 [Example 70, N-((3-(1H-pyrrolo[2,3-b]pyridin-3-yl)-1H-1,2,4-triazol-5-yl)methyl)thiophene-2-carboxamide]	< 5 µM	< 5 µM
O=C(NCc1c[nH]c(-c2ccncc2)n1)c1ccc(O)cc1O [Example 12, 2,4-dihydroxy-N-((2-(pyridin-4-yl)-1H-imidazol-4-yl)methyl)benzamide]	< 5 µM	< 5 µM
O=C(c1cccs1)N1CCn2nc(-c3ccncc3)nc2C1 [Example 62, (2-(Pyridin-4-yl)-5,6-dihydro-[1,2,4]triazolo[1,5-a]pyrazin-7(8H)-yl)(thiophen-2-yl)methanone]	> 5 µM	> 5 µM
O=C(NCc1ncc(-c2ccncc2)s1)c1cccs1 [Example 1, N-((5-(pyridin-4-yl)thiazol-2-yl)methyl)thiophene-2-carboxamide]	> 5 µM	> 5 µM
COc1cccc(C(=O)NCc2nc(-c3c[nH]c4ncccc34)cs2)c1 [Example 74, N-((4-(1H-pyrrolo[2,3-b]pyridin-3-yl)thiazol-2-yl)methyl)-3-methoxybenzamide]	< 5 µM	< 5 µM
O=C(Nc1cccc2c(-c3ccncc3)n[nH]c12)c1cccs1 [Example 68, N-(3-(Pyridin-4-yl)-1H-indazol-7-yl)thiophene-2-carboxamide]	–	> 5 µM
c1ccc(COc2ccc(CNCc3nc(-c4ccncc4)n[nH]3)cc2)cc1 [Example 56, N-(4-(Benzyloxy)benzyl)-1-(3-(pyridin-4-yl)-1H-1,2,4-triazol-5-yl)methanamine]	> 5 µM	> 5 µM
CS(=O)(=O)Nc1cccc(C(=O)NCc2nc(-c3c[nH]c4ncccc34)n[nH]2)c1 [Example 72, N-((3-(1H-pyrrolo[2,3-b]pyridin-3-yl)-1H-1,2,4-triazol-5-yl)methyl)-3-(methylsulfonamido)benzamide]	< 5 µM	< 5 µM
CC(C)(C)OC(=O)NCCCC(NC(=O)c1ccc(O)cc1O)c1nc(-c2ccncc2)n[nH]1 (stereo not shown) [Example 78, tert-Butyl 4-(2,4-dihydroxybenzamido)-4-(3-(pyridin-4-yl)-1H-1,2,4-triazol-5-yl)butylcarbamate]	< 5 µM	< 5 µM
CS(=O)(=O)Nc1ccc(C(=O)NCc2nc(-c3ccncc3)n[nH]2)cc1 [Example 44, 4-(Methylsulfonamido)-N-((3-(pyridin-4-yl)-1H-1,2,4-triazol-5-yl)methyl)benzamide]	> 5 µM	> 5 µM
O=C(NCc1cc(-c2ccncc2)n[nH]1)c1ccc(O)cc1O [Example 9, 2,4-dihydroxy-N-((3-(pyridin-4-yl)-1H-pyrazol-5-yl)methyl)benzamide]	< 5 µM	< 5 µM
NC(=O)c1cc(-c2ccncc2)n[nH]1 [Example 11, 3-(pyridin-4-yl)-1H-pyrazole-5-carboxamide]	> 5 µM	> 5 µM
Cc1cccc(C(=O)NCc2cc(-c3ccncc3)n[nH]2)c1O [Example 10, 2-hydroxy-3-methyl-N-((3-(pyridin-4-yl)-1H-pyrazol-5-yl)methyl)benzamide]	< 5 µM	< 5 µM
c1ccc2c(NCc3nc(-c4ccncc4)n[nH]3)n[nH]c2c1 [Example 59, N-((3-(Pyridin-4-yl)-1H-1,2,4-triazol-5-yl)methyl)-1H-indazol-3-amine]	> 5 µM	> 5 µM
CC(C)(C)OC(=O)NC[C@H](NC(=O)c1ccc(O)cc1O)c1nc(-c2ccncc2)n[nH]1 [Example 79, (S)-tert-Butyl 2-(2,4-dihydroxybenzamido)-2-(3-(pyridin-4-yl)-1H-1,2,4-triazol-5-yl)ethylcarbamate]	< 5 µM	< 5 µM
O=C(O)c1ccc(C(=O)NCc2nc(-c3ccncc3)n[nH]2)cc1 [Example 31, 4-((3-(Pyridin-4-yl)-1H-1,2,4-triazol-5-yl)methylcarbamoyl)benzoic acid]	> 5 µM	< 5 µM
O=C(c1cccs1)N1CCCC1c1nc(-c2ccncc2)n[nH]1 (stereo not shown) [Example 67, (2-(3-(pyridin-4-yl)-1H-1,2,4-triazol-5-yl)pyrrolidin-1-yl) (thiophen-2-yl)methanone]	> 5 µM	> 5 µM
Cc1cccc(C(=O)NCc2nc(-c3c[nH]c4ncccc34)n[nH]2)c1O [Example 71, N-((3-(1H-pyrrolo[2,3-b]pyridin-3-yl)-1H-1,2,4-triazol-5-yl)methyl)-2-hydroxy-3-methylbenzamide]	< 5 µM	> 5 µM
Clc1ccc(SCc2nc(-c3ccncc3)n[nH]2)cc1 [Example 80]	< 5 µM	< 5 µM
O=C(NCc1nc(-c2c[nH]c3ncccc23)n[nH]1)c1ccc(O)cc1O [Example 69]	< 5 µM	< 5 µM
O=C(NCc1nc(-c2ccncc2)n[nH]1)c1ccc(CO)cc1 [Example 51, 4-(Hydroxymethyl)-N-((3-(pyridin-4-yl)-1H-1,2,4-triazol-5-yl)methyl)benzamide]	< 5 µM	< 5 µM
NC1CCN(C(=O)Cc2nc(-c3ccncc3)n[nH]2)C1 (stereo not shown) [Example 61, 1-(3-Aminopyrrolidin-1-yl)-2-(3-(pyridin-4-yl)-1H-1,2,4-triazol-5-yl)ethanone]	–	> 5 µM
CC(C)(C)OC(=O)NC1CCN(C(=O)Cc2nc(-c3ccncc3)n[nH]2)C1 (stereo not shown) [Example 60, tert-Butyl 1-(2-(3-(pyridin-4-yl)-1H-1,2,4-triazol-5-yl)acetyl)pyrrolidin-3-ylcarbamate]	–	> 5 µM

The remaining lines, values ahead:

IC50 [1]	IC50 [2]	SMILES
< 5 µM	< 5 µM	O=C(NCc1nc(-c2ccncc2)n[nH]1)c1cccc2cc[nH]c12 [Example 42, N-((3-(Pyridin-4-yl)-1H-1,2,4-triazol-5-yl)methyl)-1H-indole-7-carboxamide]
< 5 µM	> 5 µM	CC(C)(C)C(=O)Oc1ccc(C(=O)NCc2nc(-c3ccncc3)n[nH]2)c(O)c1 [Example 39, 3-Hydroxy-4-((3-(pyridin-4-yl)-1H-1,2,4-triazol-5-yl)methylcarbamoyl)phenyl pivalate]
< 5 µM	< 5 µM	O=C(NCc1nc(-c2ccncc2)n[nH]1)c1ccc(O)cc1 [Example 28, 4-hydroxy-N-((3-(pyridin-4-yl)-1H-1,2,4-triazol-5-yl)methyl)benzamide]
> 5 µM	> 5 µM	CS(=O)(=O)Nc1ccccc1C(=O)NCc1nc(-c2ccncc2)n[nH]1 [Example 29, 2-(Methylsulfonamido)-N-((3-(pyridin-4-yl)-1H-1,2,4-triazol-5-yl)methyl)benzamide]
< 5 µM	< 5 µM	COc1ccc(C(=O)NCc2nc(-c3ccncc3)n[nH]2)cc1 [Example 19, 4-methoxy-N-((3-(pyridin-4-yl)-1H-1,2,4-triazol-5-yl)methyl)benzamide]
< 5 µM	< 5 µM	O=C(NCc1nc(-c2ccncc2)n[nH]1)c1ccccc1O [Example 25, 2-hydroxy-N-((3-(pyridin-4-yl)-1H-1,2,4-triazol-5-yl)methyl)benzamide]
< 5 µM	< 5 µM	Cc1csc(C(=O)NCc2nc(-c3ccncc3)n[nH]2)c1 [Example 48, 4-Methyl-N-((3-(pyridin-4-yl)-1H-1,2,4-triazol-5-yl)methyl)thiophene-2-carboxamide]
< 5 µM	< 5 µM	O=C(NCc1nc(-c2ccncc2)n[nH]1)c1ccsc1 [Example 17, N-((3-(pyridin-4-yl)-1H-1,2,4-triazol-5-yl)methyl)thiophene-3-carboxamide]
> 5 µM	> 5 µM	CC(C)(C)C(=O)Oc1ccc(C(=O)NCc2nc(-c3ccncc3)n[nH]2)c(OC(=O)C(C)(C)C)c1 [Example 37, 4-((3-(Pyridin-4-yl)-1H-1,2,4-triazol-5-yl)methylcarbamoyl)-1,3-phenylene bis(2,2-dimethylpropanoate)]
< 5 µM	< 5 µM	COc1ccc(C(=O)NCc2nc(-c3ccncc3)n[nH]2)c(O)c1 [Example 24, 2-hydroxy-4-methoxy-N-((3-(pyridin-4-yl)-1H-1,2,4-triazol-5-yl)methyl)benzamide]
–	> 5 µM	COc1ccc(NC(=O)NCc2nc(-c3ccncc3)n[nH]2)c(OC)c1 [Example 34, 1-(2,4-Dimethoxyphenyl)-3-((3-(pyridin-4-yl)-1H-1,2,4-triazol-5-yl)methyl)urea]

Source: patent publication US20080021217A1, “HETEROCYCLIC INHIBITORS OF RHO KINASE” (priority 2006, published 2008)
